Article PMC5218480 (PLoS ONE, 2017)

System: MV-4-11 cells
Experiment: Gene expression microarray analysis (Affymetrix PrimeView) and GSEA
Assay type: cell-based, human
Parameters: RFU PODN (11730768_x_at) / Fold change /veh PODN (11730768_x_at) / RFU LINC00158 (11744669_a_at) / Fold change /veh LINC00158 (11744669_a_at) / RFU DUSP10 (11751237_a_at) / Fold change /veh DUSP10 (11751237_a_at) / RFU ID3 (11757404_x_at) / Fold change /veh ID3 (11757404_x_at) / RFU PLEKHG5 (11737974_s_at) / Fold change /veh PLEKHG5 (11737974_s_at) / RFU LRRC4B (11730491_at) / Fold change /veh LRRC4B (11730491_at) / RFU GIMAP4 (11747438_a_at) / Fold change /veh GIMAP4 (11747438_a_at) / RFU KRT8 (11758183_x_at) / Fold change /veh KRT8 (11758183_x_at) / RFU CNN1 (11734310_a_at) / Fold change /veh CNN1 (11734310_a_at) / RFU VPS37D (11726825_at) / Fold change /veh VPS37D (11726825_at) / RFU C10orf10 (11716522_x_at) / Fold change /veh C10orf10 (11716522_x_at) / RFU KIR2DL2 /// KIR2DL4 /// KIR2DL5A /// KIR2DL5B /// KIR2DS1 /// KIR2DS2 /// KIR2DS3 /// KIR2DS4 /// KIR3DL3 /// KIR3DL3 /// KIR3DS1 (11738374_at) / Fold change /veh KIR2DL2 /// KIR2DL4 /// KIR2DL5A /// KIR2DL5B /// KIR2DS1 /// KIR2DS2 /// KIR2DS3 /// KIR2DS4 /// KIR3DL3 /// KIR3DL3 /// KIR3DS1 (11738374_at) / RFU C1QL1 (11718748_at) / Fold change /veh C1QL1 (11718748_at) / RFU TMPRSS4 (11747572_a_at) / Fold change /veh TMPRSS4 (11747572_a_at) / RFU HAMP (11756126_x_at) / Fold change /veh HAMP (11756126_x_at) / RFU RNFT2 (11725882_a_at) / Fold change /veh RNFT2 (11725882_a_at) / RFU NR4A2 (11747474_a_at) / Fold change /veh NR4A2 (11747474_a_at) / RFU ABCC12 (11746883_a_at) / Fold change /veh ABCC12 (11746883_a_at) / RFU TMEM136 (11760407_x_at) / Fold change /veh TMEM136 (11760407_x_at) / RFU CLDN22 /// WWC2 (11732394_at) / Fold change /veh CLDN22 /// WWC2 (11732394_at) / RFU HLA-DPB1 (11760878_x_at) / Fold change /veh HLA-DPB1 (11760878_x_at) / RFU SPINT1 (11716480_a_at) / Fold change /veh SPINT1 (11716480_a_at) / RFU GAP43 (11754022_s_at) / Fold change /veh GAP43 (11754022_s_at) / RFU A4GNT (11735810_at) / Fold change /veh A4GNT (11735810_at) / RFU PRB3 (11715151_x_at) / Fold change /veh PRB3 (11715151_x_at) / RFU TUBB4B (11761932_at) / Fold change /veh TUBB4B (11761932_at) / RFU CAPN14 (11732068_a_at) / Fold change /veh CAPN14 (11732068_a_at) / RFU TMCC2 (11721928_a_at) / Fold change /veh TMCC2 (11721928_a_at) / RFU IRGQ (11745062_a_at) / Fold change /veh IRGQ (11745062_a_at) / RFU FAM174B (11720279_a_at) / Fold change /veh FAM174B (11720279_a_at) / RFU TMPRSS4 (11748680_a_at) / Fold change /veh TMPRSS4 (11748680_a_at) / RFU FAM212B (11763350_a_at) / Fold change /veh FAM212B (11763350_a_at) / RFU PLEKHG5 (11743358_a_at) / Fold change /veh PLEKHG5 (11743358_a_at) / RFU ZSCAN30 (11745921_a_at) / Fold change /veh ZSCAN30 (11745921_a_at) / RFU CMKLR1 (11741424_a_at) / Fold change /veh CMKLR1 (11741424_a_at) / RFU LOC101060620 /// MAPK8IP1 (11723275_at) / Fold change /veh LOC101060620 /// MAPK8IP1 (11723275_at) / RFU SPTSSB (11747773_x_at) / Fold change /veh SPTSSB (11747773_x_at) / RFU PRSS12 (11739890_at) / Fold change /veh PRSS12 (11739890_at) / RFU BIN1 (11741810_x_at) / Fold change /veh BIN1 (11741810_x_at) / RFU WNT11 (11732464_a_at) / Fold change /veh WNT11 (11732464_a_at) / RFU C10orf10 (11716521_a_at) / Fold change /veh C10orf10 (11716521_a_at) / RFU C5orf56 (11738089_at) / Fold change /veh C5orf56 (11738089_at) / RFU CYB561 (11721691_x_at) / Fold change /veh CYB561 (11721691_x_at) / RFU ANKRD19P (11752326_a_at) / Fold change /veh ANKRD19P (11752326_a_at) / RFU OR2T12 /// OR2T33 /// OR2T8 (11738714_s_at) / Fold change /veh OR2T12 /// OR2T33 /// OR2T8 (11738714_s_at) / RFU VCAN (11748164_a_at) / Fold change /veh VCAN (11748164_a_at) / RFU JSRP1 (11732532_at) / Fold change /veh JSRP1 (11732532_at) / RFU KRTAP10-11 (11738290_x_at) / Fold change /veh KRTAP10-11 (11738290_x_at) / RFU MYO3A (11730013_a_at) / Fold change /veh MYO3A (11730013_a_at) / RFU EBF3 (11725865_a_at) / Fold change /veh EBF3 (11725865_a_at) / RFU CAMK2N1 (11719241_x_at) / Fold change /veh CAMK2N1 (11719241_x_at) / RFU C5orf56 (11738088_a_at) / Fold change /veh C5orf56 (11738088_a_at) / RFU OLFML3 (11715873_a_at) / Fold change /veh OLFML3 (11715873_a_at) / RFU LOC100653217 /// NTM (11731650_a_at) / Fold change /veh LOC100653217 /// NTM (11731650_a_at) / RFU MAPK11 (11762145_a_at) / Fold change /veh MAPK11 (11762145_a_at) / RFU FIZ1 (11724087_x_at) / Fold change /veh FIZ1 (11724087_x_at) / RFU OASL (11726364_x_at) / Fold change /veh OASL (11726364_x_at) / RFU SOX15 (11748057_x_at) / Fold change /veh SOX15 (11748057_x_at) / RFU CD79A (11719716_a_at) / Fold change /veh CD79A (11719716_a_at) / RFU HIST1H1D (11736915_at) / Fold change /veh HIST1H1D (11736915_at) / RFU CASKIN2 (11723855_a_at) / Fold change /veh CASKIN2 (11723855_a_at) / RFU LOC730098 (11760151_x_at) / Fold change /veh LOC730098 (11760151_x_at) / RFU OR4N2 (11742367_at) / Fold change /veh OR4N2 (11742367_at) / RFU PRRT2 (11749266_a_at) / Fold change /veh PRRT2 (11749266_a_at) / RFU SNX32 (11753110_a_at) / Fold change /veh SNX32 (11753110_a_at) / RFU CDHR5 (11726645_a_at) / Fold change /veh CDHR5 (11726645_a_at) / RFU RCAN1 (11760418_a_at) / Fold change /veh RCAN1 (11760418_a_at) / RFU FAM167A (11723789_a_at) / Fold change /veh FAM167A (11723789_a_at) / RFU FAM26E (11764081_at) / Fold change /veh FAM26E (11764081_at) / RFU ISYNA1 (11749810_s_at) / Fold change /veh ISYNA1 (11749810_s_at) / RFU ACY1 (11761880_at) / Fold change /veh ACY1 (11761880_at) / RFU 11764098_at / Fold change /veh 11764098_at / RFU SAMD14 (11745864_x_at) / Fold change /veh SAMD14 (11745864_x_at) / RFU NPB (11741838_a_at) / Fold change /veh NPB (11741838_a_at) / RFU TMPRSS6 (11731388_a_at) / Fold change /veh TMPRSS6 (11731388_a_at) / RFU KRTAP10-2 (11738614_at) / Fold change /veh KRTAP10-2 (11738614_at) / RFU ARHGAP8 /// PRR5-ARHGAP8 (11727945_x_at) / Fold change /veh ARHGAP8 /// PRR5-ARHGAP8 (11727945_x_at) / RFU KRTAP5-7 /// NADSYN1 (11734609_at) / Fold change /veh KRTAP5-7 /// NADSYN1 (11734609_at) / RFU RASL12 (11751679_a_at) / Fold change /veh RASL12 (11751679_a_at) / RFU CDKN2B (11736163_a_at) / Fold change /veh CDKN2B (11736163_a_at) / RFU PRF1 (11729649_at) / Fold change /veh PRF1 (11729649_at) / RFU, ZNF638 /// ZNF638-IT1 / Fold change vs veh, ZNF638 /// ZNF638-IT1 / RFU, PANK3 / Fold change vs veh, PANK3 / RFU, SH3YL1 / Fold change vs veh, SH3YL1 / RFU, ZEB2 / Fold change vs veh, ZEB2 / RFU, NRIP1 / Fold change vs veh, NRIP1 / RFU, PTTG1IP / Fold change vs veh, PTTG1IP / RFU, CAPN2 / Fold change vs veh, CAPN2 / RFU, MED14 / Fold change vs veh, MED14 / RFU, SNORA58 / Fold change vs veh, SNORA58 / RFU, C1orf63 / Fold change vs veh, C1orf63 / RFU, LRRFIP1 / Fold change vs veh, LRRFIP1 / RFU, NDUFAF7 / Fold change vs veh, NDUFAF7 / RFU, SLC12A2 / Fold change vs veh, SLC12A2 / RFU, IBTK / Fold change vs veh, IBTK / RFU, ESF1 / Fold change vs veh, ESF1 / Fold change vs veh, TMEM50B / RFU, TAOK1 / Fold change vs veh, TAOK1 / RFU, ACBD3 / Fold change vs veh, ACBD3 / RFU, TMA16 / Fold change vs veh, TMA16 / RFU, RWDD3 / Fold change vs veh, RWDD3 / RFU, BCAT1 / Fold change vs veh, BCAT1 / RFU, EDEM3 / Fold change vs veh, EDEM3 / RFU, TMEM33 / Fold change vs veh, TMEM33 / RFU, WDR75 / Fold change vs veh, WDR75 / RFU, AHCTF1 / Fold change vs veh, AHCTF1 / RFU, TFRC / Fold change vs veh, TFRC / RFU, ZDHHC17 / Fold change vs veh, ZDHHC17 / RFU, NOM1 / Fold change vs veh, NOM1 / RFU, ARL8B / Fold change vs veh, ARL8B / RFU, ZBTB11 / Fold change vs veh, ZBTB11 / RFU, TAMM41 / Fold change vs veh, TAMM41 / RFU, KIAA1704 /// LOC100996395 / Fold change vs veh, KIAA1704 /// LOC100996395 / RFU, ING1 / Fold change vs veh, ING1 / RFU, TRMT61B / Fold change vs veh, TRMT61B / RFU, FUBP3 / Fold change vs veh, FUBP3 / RFU, TP53 / Fold change vs veh, TP53 / RFU, TNKS2 / Fold change vs veh, TNKS2 / RFU, ZFP14 / Fold change vs veh, ZFP14 / RFU, ACTR2 / Fold change vs veh, ACTR2 / RFU, PPP3R1 / Fold change vs veh, PPP3R1 / RFU, PIK3R1 / Fold change vs veh, PIK3R1 / RFU, HNRNPA1 / Fold change vs veh, HNRNPA1 / RFU, RNF170 / Fold change vs veh, RNF170 / RFU, ZNF28 / Fold change vs veh, ZNF28 / RFU, RNGTT / Fold change vs veh, RNGTT / RFU, OGT / Fold change vs veh, OGT / RFU, BRD1 / Fold change vs veh, BRD1 / RFU, MARS / Fold change vs veh, MARS / RFU, ZNF655 / Fold change vs veh, ZNF655 / RFU, FAHD1 / Fold change vs veh, FAHD1 / RFU, BDP1 / Fold change vs veh, BDP1 / RFU, LRRCC1 / Fold change vs veh, LRRCC1 / RFU, ARID1A / Fold change vs veh, ARID1A / RFU, ZNF146 / Fold change vs veh, ZNF146 / RFU, ZNF330 / Fold change vs veh, ZNF330 / RFU, GPN3 / Fold change vs veh, GPN3 / RFU, C9orf123 / Fold change vs veh, C9orf123 / RFU, N4BP2L2 / Fold change vs veh, N4BP2L2 / RFU, ARFIP1 / Fold change vs veh, ARFIP1 / RFU, FAM179B / Fold change vs veh, FAM179B / RFU, BCL10 / Fold change vs veh, BCL10 / RFU, UHRF1BP1L / Fold change vs veh, UHRF1BP1L / RFU, BET1 / Fold change vs veh, BET1 / RFU, CNOT2 / Fold change vs veh, CNOT2 / RFU, ZNF268 / Fold change vs veh, ZNF268 / Fold change vs veh, ZNF507 / RFU, DGCR2 / Fold change vs veh, DGCR2 / RFU, WDSUB1 / Fold change vs veh, WDSUB1 / Fold change vs veh, HSP90B1 /// MIR3652 / RFU, ADSS / Fold change vs veh, ADSS / RFU, GK / Fold change vs veh, GK / RFU, ZNF148 / Fold change vs veh, ZNF148 / RFU, TAF9 / Fold change vs veh, TAF9 / RFU, SLC1A5 / Fold change vs veh, SLC1A5 / RFU, SLMO2 / Fold change vs veh, SLMO2 / RFU, ABCC4 / Fold change vs veh, ABCC4 / RFU, LOC101060439 /// RAP1B / Fold change vs veh, LOC101060439 /// RAP1B / RFU, RFX7 / Fold change vs veh, RFX7 / RFU, GTPBP10 / Fold change vs veh, GTPBP10 / RFU, CNEP1R1 / Fold change vs veh, CNEP1R1 / RFU, BIVM-ERCC5 /// ERCC5 / Fold change vs veh, BIVM-ERCC5 /// ERCC5 / RFU, ILF3 / Fold change vs veh, ILF3 / RFU 11762660_at / Fold change /veh 11762660_at / RFU VCAN (11757783_s_at) / Fold change /veh VCAN (11757783_s_at) / RFU DDX43 (11728927_at) / Fold change /veh DDX43 (11728927_at) / RFU KRT8 (11758188_x_at) / Fold change /veh KRT8 (11758188_x_at) / RFU NKD1 (11759106_at) / Fold change /veh NKD1 (11759106_at) / RFU SRD5A1 (11742802_a_at) / Fold change /veh SRD5A1 (11742802_a_at) / RFU TPSAB1 /// TPSB2 (11721975_s_at) / Fold change /veh TPSAB1 /// TPSB2 (11721975_s_at) / RFU GSTM3 (11746129_a_at) / Fold change /veh GSTM3 (11746129_a_at) / RFU IL23R (11737362_x_at) / Fold change /veh IL23R (11737362_x_at) / RFU TMEM51 (11727254_a_at) / Fold change /veh TMEM51 (11727254_a_at) / RFU PIWIL2 (11732686_x_at) / Fold change /veh PIWIL2 (11732686_x_at) / RFU ORM1 (11744905_x_at) / Fold change /veh ORM1 (11744905_x_at) / RFU CCDC152 (11743942_at) / Fold change /veh CCDC152 (11743942_at) / RFU ECM1 (11717891_a_at) / Fold change /veh ECM1 (11717891_a_at) / RFU IL23R (11748794_a_at) / Fold change /veh IL23R (11748794_a_at) / RFU TNFAIP8L3 (11732012_x_at) / Fold change /veh TNFAIP8L3 (11732012_x_at) / RFU MBOAT4 (11741988_at) / Fold change /veh MBOAT4 (11741988_at) / RFU 11764193_at / Fold change /veh 11764193_at / RFU TMEM53 (11763286_at) / Fold change /veh TMEM53 (11763286_at) / RFU MAGEB2 (11727129_at) / Fold change /veh MAGEB2 (11727129_at) / RFU TMEM200A (11744735_a_at) / Fold change /veh TMEM200A (11744735_a_at) / RFU CCDC152 (11751479_a_at) / Fold change /veh CCDC152 (11751479_a_at) / RFU FAM211A (11726209_a_at) / Fold change /veh FAM211A (11726209_a_at) / RFU RGS16 (11746705_a_at) / Fold change /veh RGS16 (11746705_a_at) / RFU VCAN (11755009_s_at) / Fold change /veh VCAN (11755009_s_at) / RFU RHOB (11743442_s_at) / Fold change /veh RHOB (11743442_s_at) / RFU RGS16 (11720943_a_at) / Fold change /veh RGS16 (11720943_a_at) / RFU RGS16 (11720944_at) / Fold change /veh RGS16 (11720944_at) / RFU, VPS4B / Fold change vs veh, VPS4B / RFU, CREB1 / Fold change vs veh, CREB1 / RFU, DNAJC13 / Fold change vs veh, DNAJC13 / RFU, GNAQ / Fold change vs veh, GNAQ / RFU, CDK5R1 / Fold change vs veh, CDK5R1 / RFU, ZRANB3 / Fold change vs veh, ZRANB3 / RFU, CUL4A / Fold change vs veh, CUL4A / RFU, CCNY / Fold change vs veh, CCNY / RFU, UFL1 / Fold change vs veh, UFL1 / RFU, COG3 / Fold change vs veh, COG3 / RFU, DIAPH2 / Fold change vs veh, DIAPH2 / RFU, SKA2 / Fold change vs veh, SKA2 / RFU, AFF3 / Fold change vs veh, AFF3 / RFU, LMF1 / Fold change vs veh, LMF1 / RFU, IPO11 / Fold change vs veh, IPO11 / RFU, DFFB / Fold change vs veh, DFFB / RFU, FOXP1 / Fold change vs veh, FOXP1 / RFU, CARD8 / Fold change vs veh, CARD8 / RFU, STRN3 / Fold change vs veh, STRN3 / RFU, ADK / Fold change vs veh, ADK / RFU, RASSF2 / Fold change vs veh, RASSF2 / RFU, WIPF1 / Fold change vs veh, WIPF1 / RFU, LARP1B / Fold change vs veh, LARP1B / RFU, RASA1 / Fold change vs veh, RASA1 / RFU, RB1 / Fold change vs veh, RB1 / RFU, PPFIA1 / Fold change vs veh, PPFIA1 / RFU, MAT2A / Fold change vs veh, MAT2A / RFU, CCT5 / Fold change vs veh, CCT5 / RFU, WDR92 / Fold change vs veh, WDR92 / RFU, CUX1 / Fold change vs veh, CUX1 / RFU, TTC7A / Fold change vs veh, TTC7A / RFU, TMEM135 / Fold change vs veh, TMEM135 / RFU, DEPTOR / Fold change vs veh, DEPTOR / RFU, CPM / Fold change vs veh, CPM / RFU, DNAJB6 / Fold change vs veh, DNAJB6 / RFU, CACNA2D3 / Fold change vs veh, CACNA2D3 / RFU, DTX4 / Fold change vs veh, DTX4 / RFU, TFCP2 / Fold change vs veh, TFCP2 / RFU, GMCL1 /// GMCL1P1 / Fold change vs veh, GMCL1 /// GMCL1P1 / RFU, AEBP2 / Fold change vs veh, AEBP2 / RFU, SNHG1 /// SNORD22 /// SNORD25 /// SNORD26 /// SNORD27 /// SNORD28 /// SNORD29 /// SNORD31 / Fold change vs veh, SNHG1 /// SNORD22 /// SNORD25 /// SNORD26 /// SNORD27 /// SNORD28 /// SNORD29 /// SNORD31 / Fold change (Aza/veh), C12orf56 (ProbeSet 11735607_a_at) / Fold change (ACY-1035/veh), C12orf56 (ProbeSet 11735607_a_at) / Fold change (Aza/veh), FGFR1OP (ProbeSet 11751329_s_at) / Fold change (ACY-1035/veh), FGFR1OP (ProbeSet 11751329_s_at) / Fold change (Aza/veh), VPS36 (ProbeSet 11739960_a_at) / Fold change (ACY-1035/veh), VPS36 (ProbeSet 11739960_a_at) / RFU SYPL1 (11715823_x_at) / Fold change /veh SYPL1 (11715823_x_at) / RFU IGFBP7 (11715501_s_at) / Fold change /veh IGFBP7 (11715501_s_at) / RFU REEP3 (11722064_at) / Fold change /veh REEP3 (11722064_at) / RFU IGLL1 (11728026_x_at) / Fold change /veh IGLL1 (11728026_x_at): dose or concentration left out as unconfirmed
Conditions: MV-4-11 cells, 48 hours

Nc1ncn([C@@H]2O[C@H](CO)[C@@H](O)[C@H]2O)c(=O)n1 [azacitidine]
RFU IGFBP7 (11715501_s_at): 202.56 RFU
